Results on two compounds are retold here after US10294202B2, “Pyrrolidinones as herbicides” (FMC Corporation, priority 2013, dated 2019).

Experiment in all cases: Test E preemergence herbicide test
Common to all, as to design: key: 0 = no effect, 100 = complete control

The subject of one assay is wild poinsettia. Type of assay: in vivo, Euphorbia heterophylla. The gist of the method: (§1)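 Seeds were sown in silt loam soil and treated preemergence with test chemicals in a non-phytotoxic solvent mixture containing a surfactant. Plants were kept in a greenhouse for 21 days, then visually rated against untreated controls on a 0–100 scale (0 = no effect, 100 = complete control).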

Another assay concerns goosegrass. Type of assay: in vivo, Eleusine indica. The gist of the method: as §1
Another assay has as its system foxtail, green. It is filed as in vivo, Setaria viridis. An excerpt: (§2) Seeds of plant species selected from corn (Zea mays), soybean (Glycine max), velvetleaf (Abutilon theophrasti), lambsquarters (Chenopodium album), wild poinsettia (Euphorbia heterophylla), pigweed, palmer (palmer pigweed, Amaranthus palmeri), waterhemp (common waterhemp, Amaranthus rudis), surinam grass (Brachiaria decumbens), crabgrass, large (large crabgrass, Digitaria sanguinalis), crabgrass, Brazil (Brazilian crabgrass, Digitaria horizontalis), panicum, fall (fall panicum, Panicum dichotomiflorum), foxtail, giant (giant foxtail, Setaria faberii), foxtail, green (green foxtail, Setaria viridis), goosegrass (Eleusine indica), johnsongrass (Sorghum halepense), ragweed (common ragweed, Ambrosia elatior), barnyardgrass (Echinochloa crus-galli), sandbur (southern sandbur, Cenchrus echinatus), arrowleaf […] rhombifolia), ryegrass, Italian (Italian ryegrass, Lolium multiflorum), dayflower, VA (Virginia dayflower, Commelina virginica), field bindweed (Convolvulus arvensis), morningglory (Ipomoea coccinea), nightshade (eastern black nightshade, Solanum ptycanthum), kochia (Kochia scoparia), nutsedge, yellow (yellow nutsedge, Cyperus esculentus), cocklebur (common cocklebur, Xanthium strumarium), smartweed (ladysthumb smartweed, Polygonum Persicaria) and beggarticks (hairy beggarticks, Bidens pilosa), were planted into a silt loam soil and treated preemergence with test chemicals formulated in a non-phytotoxic solvent mixture which included a surfactant. Treated plants and controls were maintained in a greenhouse for 21 days, after which time all species were compared to controls and visually evaluated. Plant response ratings, summarized in Table E, are based on a scale of 0 to 100 where 0 is no effect and 100 is complete control. A dash (-) response means no test result.

In the next assay the test system is morningglory. Type of assay: in vivo, Ipomoea coccinea.
Description: as §2

As for `O=C1NCC(c2cccc(Br)c2)C1C(=O)Nc1ccccc1F` (stereo not drawn) [Compound 66], the “Plant response rating, Poinsettia, Wild” value with wild poinsettia (16 g ai/ha) was determined as 0; in the assay with wild poinsettia (31 g ai/ha), 0; with wild poinsettia (62 g ai/ha), 0; with wild poinsettia (125 g ai/ha), 0; in the assay on wild poinsettia (250 g ai/ha), 20. Moreover, the “Plant response rating, Goosegrass” value with goosegrass (16 g ai/ha), in the assay on goosegrass (31 g ai/ha), in the assay with goosegrass (62 g ai/ha), in the assay with goosegrass (125 g ai/ha) and in the assay with goosegrass (250 g ai/ha) was 0 throughout. Also, the “Plant response rating, Foxtail, Green” value in the assay on foxtail, green (16 g ai/ha) is 0; in the assay on foxtail, green (31 g ai/ha), 0; in the assay with foxtail, green (62 g ai/ha), 0; in the assay with foxtail, green (125 g ai/ha), 35; in the assay on foxtail, green (250 g ai/ha), 60. Also, the “Plant response rating, Morningglory” value with morningglory (16 g ai/ha), in the assay with morningglory (31 g ai/ha), in the assay with morningglory (62 g ai/ha), with morningglory (125 g ai/ha) and in the assay with morningglory (250 g ai/ha) was 0 in each case.
On to `O=C1NCC(c2ccc(C(F)(F)F)cc2)C1C(=O)Nc1ccc(F)c(F)c1F` (stereo not drawn) [Compound 232], for which the “Plant response rating, Poinsettia, Wild” value is on record as 0 in the assay on wild poinsettia (31 g ai/ha), 0 with wild poinsettia (62 g ai/ha), 35 with wild poinsettia (125 g ai/ha) and 40 in the assay with wild poinsettia (250 g ai/ha). Further, the “Plant response rating, Goosegrass” value turned out to be 35 with goosegrass (31 g ai/ha), 80 with goosegrass (62 g ai/ha), 85 in the assay with goosegrass (125 g ai/ha) and 95 with goosegrass (250 g ai/ha). Besides, the “Plant response rating, Foxtail, Green” value in the assay with foxtail, green (31 g ai/ha) was 80; in the assay on foxtail, green (62 g ai/ha), 95; with foxtail, green (125 g ai/ha) it was 98; in the assay with foxtail, green (250 g ai/ha) it was 98. Moreover, the “Plant response rating, Morningglory” value with morningglory (31 g ai/ha) is recorded as 0; in the assay with morningglory (62 g ai/ha) it was 0; with morningglory (125 g ai/ha) it was 0; in the assay with morningglory (250 g ai/ha), 35.
